In the supplement of paper PMC4862054:

Legend:
Assay in all cases: drug sensitivity score (DSS), CellTox Green (DSS (AUC-based score)); higher = stronger drug effect (viability inhibition or cytotoxicity); extreme values may be limits of the assay
Settings in all cases: incubation time: 72 h
MFM-223 = system: MFM-223
Outline: (§1)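 The area under the fitted dose-response curve was used to calculate the drug sensitivity score. Cells from breast cancer lines were incubated for 72 h in 384-well plates with compound at 5 concentrations spaced 10-fold over a 10,000-fold range specific to each compound. Plates were read for CellTox Green and then CellTiter-Glo, and normalised to 0.1 % DMSO and a positive kill control.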

CAL-148 = system: CAL-148
Outline: as §1

MDA-MB-468 = system: MDA-MB-468
Outline: as §1

DU-4475 = system: DU-4475
Outline: as §1

CAL-85-1 = system: CAL-85-1
Outline: as §1

HCC1143 = system: HCC1143
Outline: as §1

BT-549 = system: BT-549
Outline: as §1

CAL-51 = system: CAL-51
Outline: as §1

MDA-MB-436 = system: MDA-MB-436
Outline: as §1

HCC1599 = system: HCC1599
Outline: as §1

MDA-MB-453 = system: MDA-MB-453
Outline: as §1

BT-474 = system: BT-474
Outline: as §1

MCF-10A = system: MCF-10A
Outline: as §1

CAL-120 = system: CAL-120
Outline: as §1

HDQ-P1 = system: HDQ-P1
Outline: as §1

SMILES: CC(=O)O[C@]1(C(C)=O)CC[C@H]2[C@@H]3C=C(C)C4=CC(=O)CC[C@]4(C)[C@H]3CC[C@@]21C [Megestrol acetate]
- drug sensitivity score (MFM-223): 0
- drug sensitivity score (CAL-148): 0
- drug sensitivity score (MDA-MB-468): 0
- drug sensitivity score (DU-4475): 0
- drug sensitivity score (CAL-85-1): 0
- drug sensitivity score (HCC1143): 0
- drug sensitivity score (BT-549): 0
- drug sensitivity score (CAL-51): 0
- drug sensitivity score (MDA-MB-436): 0
- drug sensitivity score (HCC1599): 0
- drug sensitivity score (MDA-MB-453): 0
- drug sensitivity score (BT-474): 0
- drug sensitivity score (MCF-10A): 0
- drug sensitivity score (CAL-120): 0
- drug sensitivity score (HDQ-P1): 1.18

SMILES: S=c1[nH]cnc2nc[nH]c12 [Mercaptopurine]
- drug sensitivity score (MFM-223): 0
- drug sensitivity score (CAL-148): 0
- drug sensitivity score (MDA-MB-468): 0
- drug sensitivity score (DU-4475): 0
- drug sensitivity score (CAL-85-1): 0
- drug sensitivity score (HCC1143): 0
- drug sensitivity score (BT-549): 0
- drug sensitivity score (CAL-51): 0
- drug sensitivity score (MDA-MB-436): 0
- drug sensitivity score (HCC1599): 0
- drug sensitivity score (MDA-MB-453): 0
- drug sensitivity score (BT-474): 0
- drug sensitivity score (MCF-10A): 0
- drug sensitivity score (CAL-120): 0
- drug sensitivity score (HDQ-P1): 0

SMILES: Clc1ccc(C(c2ccccc2Cl)C(Cl)Cl)cc1 (stereo not given) [Mitotane]
- drug sensitivity score (MFM-223): 0
- drug sensitivity score (CAL-148): 0
- drug sensitivity score (MDA-MB-468): 0
- drug sensitivity score (DU-4475): 0
- drug sensitivity score (CAL-85-1): 0
- drug sensitivity score (HCC1143): 2.11
- drug sensitivity score (BT-549): 0
- drug sensitivity score (CAL-51): 0
- drug sensitivity score (MDA-MB-436): 0
- drug sensitivity score (HCC1599): 0
- drug sensitivity score (MDA-MB-453): 0
- drug sensitivity score (BT-474): 0
- drug sensitivity score (MCF-10A): 0
- drug sensitivity score (CAL-120): 0
- drug sensitivity score (HDQ-P1): 0

SMILES: CCN1CCN(c2ccc(Nc3cc(N(C)C(=O)Nc4c(Cl)c(OC)cc(OC)c4Cl)ncn3)cc2)CC1 [NVP-BGJ398]
- drug sensitivity score (MFM-223): 0
- drug sensitivity score (CAL-148): 0
- drug sensitivity score (MDA-MB-468): 0
- drug sensitivity score (DU-4475): 0
- drug sensitivity score (CAL-85-1): 0
- drug sensitivity score (HCC1143): 0
- drug sensitivity score (BT-549): 0
- drug sensitivity score (CAL-51): 0
- drug sensitivity score (MDA-MB-436): 0
- drug sensitivity score (HCC1599): 0
- drug sensitivity score (MDA-MB-453): 0
- drug sensitivity score (BT-474): 0
- drug sensitivity score (MCF-10A): 0
- drug sensitivity score (CAL-120): 0.0505
- drug sensitivity score (HDQ-P1): 0

SMILES: COc1cccc2cc(-c3nc([C@H]4CC[C@H](C(=O)O)CC4)n4ncnc(N)c34)[nH]c12 [OSI-027]
- drug sensitivity score (MFM-223): 0
- drug sensitivity score (CAL-148): 0
- drug sensitivity score (MDA-MB-468): 0
- drug sensitivity score (DU-4475): 0
- drug sensitivity score (CAL-85-1): 0.0118
- drug sensitivity score (HCC1143): 0
- drug sensitivity score (BT-549): 0
- drug sensitivity score (CAL-51): 0
- drug sensitivity score (MDA-MB-436): 0
- drug sensitivity score (HCC1599): 0
- drug sensitivity score (MDA-MB-453): 0
- drug sensitivity score (BT-474): 0
- drug sensitivity score (MCF-10A): 0
- drug sensitivity score (CAL-120): 0
- drug sensitivity score (HDQ-P1): 0

SMILES: OC[C@H]1O[C@@H](n2cnc3c2N=CNC[C@H]3O)C[C@@H]1O [Pentostatin]
- drug sensitivity score (MFM-223): 0
- drug sensitivity score (CAL-148): 0
- drug sensitivity score (MDA-MB-468): 0
- drug sensitivity score (DU-4475): 0
- drug sensitivity score (CAL-85-1): 0
- drug sensitivity score (HCC1143): 0
- drug sensitivity score (BT-549): 0
- drug sensitivity score (CAL-51): 0
- drug sensitivity score (MDA-MB-436): 0
- drug sensitivity score (HCC1599): 0
- drug sensitivity score (MDA-MB-453): 0
- drug sensitivity score (BT-474): 0
- drug sensitivity score (MCF-10A): 0
- drug sensitivity score (CAL-120): 0
- drug sensitivity score (HDQ-P1): 0

SMILES: N#CC[C@H](C1CCCC1)n1cc(-c2ncnc3[nH]ccc23)cn1 [Ruxolitinib]
- drug sensitivity score (MFM-223): 0
- drug sensitivity score (CAL-148): 0
- drug sensitivity score (MDA-MB-468): 0
- drug sensitivity score (DU-4475): 0
- drug sensitivity score (CAL-85-1): 0
- drug sensitivity score (HCC1143): 0
- drug sensitivity score (BT-549): 0
- drug sensitivity score (CAL-51): 0
- drug sensitivity score (MDA-MB-436): 0
- drug sensitivity score (HCC1599): 0
- drug sensitivity score (MDA-MB-453): 0
- drug sensitivity score (BT-474): 0
- drug sensitivity score (MCF-10A): 0
- drug sensitivity score (CAL-120): 0
- drug sensitivity score (HDQ-P1): 4.94

SMILES: C=CC[C@@H]1/C=C(\C)C[C@H](C)C[C@H](OC)[C@H]2O[C@@](O)(C(=O)C(=O)N3CCCC[C@H]3C(=O)O[C@H](/C(C)=C/[C@@H]3CC[C@@H](O)[C@H](OC)C3)[C@H](C)[C@@H](O)CC1=O)[C@H](C)C[C@@H]2OC [Tacrolimus]
- drug sensitivity score (MFM-223): 0
- drug sensitivity score (CAL-148): 0
- drug sensitivity score (MDA-MB-468): 0
- drug sensitivity score (DU-4475): 0
- drug sensitivity score (CAL-85-1): 0
- drug sensitivity score (HCC1143): 0
- drug sensitivity score (BT-549): 0
- drug sensitivity score (CAL-51): 0
- drug sensitivity score (MDA-MB-436): 0
- drug sensitivity score (HCC1599): 0
- drug sensitivity score (MDA-MB-453): 0
- drug sensitivity score (BT-474): 0
- drug sensitivity score (MCF-10A): 0.439
- drug sensitivity score (CAL-120): 0
- drug sensitivity score (HDQ-P1): 0

SMILES: C=CCNC1=C2C[C@@H](C)C[C@H](OC)[C@H](O)[C@@H](C)/C=C(\C)[C@H](OC(N)=O)[C@@H](OC)/C=C\C=C(/C)C(=O)NC(=CC1=O)C2=O [Tanespimycin]
- drug sensitivity score (MFM-223): 0
- drug sensitivity score (CAL-148): 15.9
- drug sensitivity score (MDA-MB-468): 0
- drug sensitivity score (DU-4475): 7.07
- drug sensitivity score (CAL-85-1): 7.62
- drug sensitivity score (HCC1143): 2.55
- drug sensitivity score (BT-549): 0
- drug sensitivity score (CAL-51): 10.9
- drug sensitivity score (MDA-MB-436): 0
- drug sensitivity score (HCC1599): 0
- drug sensitivity score (MDA-MB-453): 0
- drug sensitivity score (BT-474): 7.84
- drug sensitivity score (MCF-10A): 15.9
- drug sensitivity score (CAL-120): 0.533
- drug sensitivity score (HDQ-P1): 10.1

SMILES: CO[C@H]1C[C@@H]2CC[C@@H](C)[C@@](O)(O2)C(=O)C(=O)N2CCCC[C@H]2C(=O)O[C@H]([C@H](C)C[C@@H]2CC[C@@H](OC(=O)C(C)(CO)CO)[C@H](OC)C2)CC(=O)[C@H](C)/C=C(\C)[C@@H](O)[C@@H](OC)C(=O)[C@H](C)C[C@H](C)/C=C/C=C/C=C/1C [Temsirolimus]
- drug sensitivity score (MFM-223): 0
- drug sensitivity score (CAL-148): 0
- drug sensitivity score (MDA-MB-468): 0
- drug sensitivity score (DU-4475): 0
- drug sensitivity score (CAL-85-1): 0
- drug sensitivity score (HCC1143): 0
- drug sensitivity score (BT-549): 0
- drug sensitivity score (CAL-51): 0
- drug sensitivity score (MDA-MB-436): 0
- drug sensitivity score (HCC1599): 0
- drug sensitivity score (MDA-MB-453): 0
- drug sensitivity score (BT-474): 0
- drug sensitivity score (MCF-10A): 0
- drug sensitivity score (CAL-120): 0
- drug sensitivity score (HDQ-P1): 0

SMILES: O=C(c1ccc(C(=O)N2CCC(N3CCCC3)CC2)c(Nc2ccccc2)c1)N1CCC(N2CCCC2)CC1 [UNC1215]
- drug sensitivity score (MFM-223): 0
- drug sensitivity score (CAL-148): 0
- drug sensitivity score (MDA-MB-468): 0
- drug sensitivity score (DU-4475): 0
- drug sensitivity score (CAL-85-1): 0
- drug sensitivity score (HCC1143): 0.868
- drug sensitivity score (BT-549): 0
- drug sensitivity score (CAL-51): 0
- drug sensitivity score (MDA-MB-436): 0
- drug sensitivity score (HCC1599): 0
- drug sensitivity score (MDA-MB-453): 0
- drug sensitivity score (BT-474): 0
- drug sensitivity score (MCF-10A): 0
- drug sensitivity score (CAL-120): 0
- drug sensitivity score (HDQ-P1): 0

SMILES: C[C@]1(c2nc3c(C(N)=O)cccc3[nH]2)CCCN1 [Veliparib]
- drug sensitivity score (MFM-223): 0
- drug sensitivity score (CAL-148): 2.57
- drug sensitivity score (MDA-MB-468): 0
- drug sensitivity score (DU-4475): 0
- drug sensitivity score (CAL-85-1): 0.454
- drug sensitivity score (HCC1143): 0
- drug sensitivity score (BT-549): 0
- drug sensitivity score (CAL-51): 0
- drug sensitivity score (MDA-MB-436): 0
- drug sensitivity score (HCC1599): 0
- drug sensitivity score (MDA-MB-453): 0
- drug sensitivity score (BT-474): 0
- drug sensitivity score (MCF-10A): 0
- drug sensitivity score (CAL-120): 0
- drug sensitivity score (HDQ-P1): 0

SMILES: CC[C@]1(O)C[C@@H]2CN(CCc3c([nH]c4ccccc34)[C@@](C(=O)OC)(c3cc4c(cc3OC)N(C)[C@H]3[C@@](O)(C(=O)OC)[C@H](OC(C)=O)[C@]5(CC)C=CCN6CC[C@]43[C@@H]65)C2)C1 [Vinblastine]
- drug sensitivity score (MFM-223): 12.2
- drug sensitivity score (CAL-148): 0
- drug sensitivity score (MDA-MB-468): 12.8
- drug sensitivity score (DU-4475): 0
- drug sensitivity score (CAL-85-1): 6.07
- drug sensitivity score (HCC1143): 9.2
- drug sensitivity score (BT-549): 10.2
- drug sensitivity score (CAL-51): 22.3
- drug sensitivity score (MDA-MB-436): 0
- drug sensitivity score (HCC1599): 2.86
- drug sensitivity score (MDA-MB-453): 0
- drug sensitivity score (BT-474): 8.39
- drug sensitivity score (MCF-10A): 12.5
- drug sensitivity score (CAL-120): 3.49
- drug sensitivity score (HDQ-P1): 0

SMILES: CS(=O)(=O)c1ccc(C(=O)Nc2ccc(Cl)c(-c3ccccn3)c2)c(Cl)c1 [Vismodegib]
- drug sensitivity score (MFM-223): 0
- drug sensitivity score (CAL-148): 0
- drug sensitivity score (MDA-MB-468): 0
- drug sensitivity score (DU-4475): 0
- drug sensitivity score (CAL-85-1): 0
- drug sensitivity score (HCC1143): 0
- drug sensitivity score (BT-549): 0
- drug sensitivity score (CAL-51): 0
- drug sensitivity score (MDA-MB-436): 0
- drug sensitivity score (HCC1599): 0
- drug sensitivity score (MDA-MB-453): 0
- drug sensitivity score (BT-474): 0
- drug sensitivity score (MCF-10A): 0
- drug sensitivity score (CAL-120): 0
- drug sensitivity score (HDQ-P1): 0
